Data from ChEMBL document CHEMBL5038595, “Synthesis and Pharmacological Evaluation of Tetrahydro-γ-carboline Derivatives as Potent Anti-inflammatory Agents Targeting Cyclic GMP-AMP Synthase” (J Med Chem, 2021).
Calls of active or inactive are those of the source. No cut-off for these calls is given here.

Columns and labels:
[1] = target: Stimulator of interferon genes protein (Homo sapiens) (UniProt Q86WV6); test: Inhibition of STING-dependent cGAS activation in cGAMP treated human THP-1-Dual cells assessed as suppression of lipofectamine 2000:cGAMP-induced IRF luciferase expression at 10 uM incubated for 1 hr by Quanti-luc reagent based assay; assay type: cell-based
Stimulator of interferon genes protein (Homo sapiens), sequence (Q86WV6 whole entry): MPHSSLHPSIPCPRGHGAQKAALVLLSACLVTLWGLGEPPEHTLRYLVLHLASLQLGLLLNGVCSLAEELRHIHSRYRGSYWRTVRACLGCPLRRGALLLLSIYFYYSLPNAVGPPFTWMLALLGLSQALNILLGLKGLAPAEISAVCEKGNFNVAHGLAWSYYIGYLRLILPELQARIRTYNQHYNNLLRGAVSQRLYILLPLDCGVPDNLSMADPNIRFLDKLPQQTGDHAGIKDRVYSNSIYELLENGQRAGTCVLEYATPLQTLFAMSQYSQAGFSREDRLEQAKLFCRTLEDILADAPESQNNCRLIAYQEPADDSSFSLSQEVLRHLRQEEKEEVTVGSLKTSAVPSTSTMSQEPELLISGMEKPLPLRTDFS

[2] = Cytotoxicity against human THP1-Dual cells assessed as reduction in cell viability incubated for 24 hrs by CCK-8 assay; assay type: toxicity, cell-based
Cyclic GMP-AMP synthase [3] = target: Cyclic GMP-AMP synthase (Homo sapiens, UniProt Q8N884); test: Inhibition of human cGAS expressed in THP1-Dual cells transfected with HT-DNA assessed as suppression of lipofectamine 2000:ds-DNA complex induced activation of cGAS incubated for 1 hr by Quanti-luc reagent based assay; assay type: cell-based
Cyclic GMP-AMP synthase (Homo sapiens, UniProt Q8N884), sequence (Q8N884 whole entry): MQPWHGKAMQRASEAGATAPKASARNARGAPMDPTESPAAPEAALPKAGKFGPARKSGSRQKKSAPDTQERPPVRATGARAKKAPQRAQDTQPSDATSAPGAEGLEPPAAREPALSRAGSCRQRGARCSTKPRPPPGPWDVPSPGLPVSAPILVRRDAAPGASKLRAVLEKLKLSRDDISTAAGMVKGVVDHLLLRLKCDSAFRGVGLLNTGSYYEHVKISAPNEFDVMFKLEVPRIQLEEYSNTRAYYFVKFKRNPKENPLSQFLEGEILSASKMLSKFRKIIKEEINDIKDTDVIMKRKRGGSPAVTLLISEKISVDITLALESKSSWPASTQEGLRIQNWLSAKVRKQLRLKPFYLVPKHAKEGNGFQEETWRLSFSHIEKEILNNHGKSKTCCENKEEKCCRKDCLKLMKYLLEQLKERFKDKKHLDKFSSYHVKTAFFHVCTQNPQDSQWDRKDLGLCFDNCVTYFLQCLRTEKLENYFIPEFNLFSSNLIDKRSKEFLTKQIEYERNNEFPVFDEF

Cyclic GMP-AMP synthase [4] = target: Cyclic GMP-AMP synthase (Mus musculus, UniProt Q8C6L5); test: Inhibition of mouse cGAS expressed in RAW-Lucia ISG transfected with HT-DNA assessed as suppression of lipofectamine 2000:ds-DNA complex induced activation of cGAS incubated for 1 hr by Quanti-luc reagent based assay; assay type: cell-based
Cyclic GMP-AMP synthase (Mus musculus, UniProt Q8C6L5), sequence (Q8C6L5 whole entry): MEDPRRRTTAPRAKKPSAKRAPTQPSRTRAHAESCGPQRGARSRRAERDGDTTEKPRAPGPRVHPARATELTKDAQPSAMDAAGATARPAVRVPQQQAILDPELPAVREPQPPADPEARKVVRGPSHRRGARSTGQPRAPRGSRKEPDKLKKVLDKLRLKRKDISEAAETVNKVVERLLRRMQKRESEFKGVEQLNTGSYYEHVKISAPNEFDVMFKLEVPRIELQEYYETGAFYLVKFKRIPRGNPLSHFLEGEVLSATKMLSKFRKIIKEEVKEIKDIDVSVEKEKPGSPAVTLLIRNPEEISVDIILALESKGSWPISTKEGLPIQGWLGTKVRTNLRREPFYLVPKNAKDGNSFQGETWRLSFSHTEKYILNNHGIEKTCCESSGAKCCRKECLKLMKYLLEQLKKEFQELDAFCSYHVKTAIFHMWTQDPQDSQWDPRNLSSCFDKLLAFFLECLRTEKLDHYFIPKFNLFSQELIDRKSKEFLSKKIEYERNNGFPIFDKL

[5] = Cytotoxicity against mouse RAW-Lucia ISG cells assessed as reduction in cell viability incubated for 24 hrs by CCK-8 assay; assay type: toxicity, cell-based

inhibition [1]	IC50 (Cyclic GMP-AMP synthase [3])	IC50 (Cyclic GMP-AMP synthase [4])	SMILES	CC50 at 24 h [2]	CC50 at 24 h [5]
inactive	4.07 µM	8.42 µM	O=C(CO)N1CCC2Nc3c(ccc(Cl)c3Cl)C2(c2c[nH]c3ccccc23)C1 (centres undefined)	42.8 µM	34.9 µM
–	10 µM	7.62 µM	Cn1ccc(-c2cc(Cl)c(Cl)c3[nH]c4c(c23)CN(C(=O)CNC(=O)c2cccc(-c3noc(C(F)(F)F)n3)c2)CC4)n1	> 50 µM	> 50 µM
–	9.59 µM	–	CC(=O)OCC(=O)N1CCC2=Nc3c(ccc(Cl)c3Cl)C2(Nc2ccccc2C=O)C1 (centres undefined)	> 50 µM	–
–	38.2 µM	37.6 µM	O=C(CO)N1C[C@H]2[C@H]3O[C@]4(Nc5ccc(Cl)cc53)c3ccc(Cl)c(Cl)c3N[C@]24C1 (racemic)	> 50 µM	> 50 µM
–	> 50 µM	–	Cn1ccc(-c2cc(Cl)c(Cl)c3[nH]c4c(c23)CN(C(=O)C2(N)COC2)CC4)n1	> 50 µM	–
inactive	–	–	Cn1ccc(-c2cc(Cl)c(Cl)c3[nH]c4c(c23)CN(C(=O)CN)CC4)n1 [listing 1 of 2 here]	–	–
–	19.2 µM	3.23 µM	Cn1ccc(-c2cc(Cl)c(Cl)c3[nH]c4c(c23)CN(C(=O)OC(C(F)(F)F)C(F)(F)F)CC4)n1	50 µM	43.3 µM
–	10.5 µM	–	Cn1ccc(-c2cc(Cl)c(Cl)c3[nH]c4c(c23)CN(C(=O)CNC(=O)C(C)(C)N)CC4)n1	12.3 µM	–
–	12.9 µM	–	O=C(CO)N1CCC2=Nc3c(ccc(Cl)c3Cl)C2(c2c[nH]c3cc(F)cc(F)c23)C1 (centres undefined)	10.4 µM	–
–	> 50 µM	–	Cn1ccc(-c2cc(Cl)c(Cl)c3[nH]c4c(c23)CN(C(=O)C2CC(O)C2)CC4)n1 (centres undefined)	> 50 µM	–
–	7.17 µM	7.7 µM	Cn1ccc(-c2cc(Cl)c(Cl)c3[nH]c4c(c23)CN(C(=O)CNC(=O)Cc2ccco2)CC4)n1	47.3 µM	49.2 µM
–	> 50 µM	22.8 µM	COc1ccccc1NC12CN(C(=O)CO)CCC1=Nc1c2ccc(Cl)c1Cl (centres undefined)	> 50 µM	> 50 µM
–	39.4 µM	–	CCOC(=O)c1ccc(NC23CN(C(=O)CO)CCC2=Nc2c3ccc(Cl)c2Cl)cc1 (centres undefined)	52.5 µM	–
–	1.87 µM	10.9 µM	Cn1ccc(-c2cc(Cl)c(Cl)c3[nH]c4c(c23)CN(C(=O)CN)CC4)n1 [listing 2 of 2 here]	32.2 µM	23.4 µM
–	7.86 µM	–	Cn1ccc(-c2cc(Cl)c(Cl)c3[nH]c4c(c23)CN(C(=O)CNC(=O)CN2CCNCC2)CC4)n1	37.7 µM	–
–	6.3 µM	21.9 µM	CNCC(=O)N1CCc2[nH]c3c(Cl)c(Cl)cc(-c4ccn(C)n4)c3c2C1	42.1 µM	> 50 µM
–	> 50 µM	–	Cn1ccc(-c2cc(Cl)c(Cl)c3[nH]c4c(c23)CN(C(=O)CN2CCOCC2)CC4)n1	> 50 µM	–
–	> 50 µM	–	Cn1ccc(-c2cc(Cl)c(Cl)c3[nH]c4c(c23)CN(C(=O)CNC(=O)C2=C[C@H](O)[C@H](O)[C@@H](O)C2)CC4)n1	> 50 µM	–
Active	6.95 µM	14.2 µM	O=C(CO)N1CCC2=Nc3c(ccc(Cl)c3Cl)C2(c2c[nH]c3ccccc23)C1 (centres undefined)	> 50 µM	> 50 µM
–	3.23 µM	7.94 µM	CC(=O)OCC(=O)N1CCC2=Nc3c(ccc(Cl)c3Cl)C2(Nc2cc(C(F)(F)F)cc(C(F)(F)F)c2)C1 (centres undefined)	11 µM	7.88 µM
Active	3.12 µM	9.56 µM	O=C(CO)N1CCC2=Nc3c(ccc(Cl)c3Cl)C2(Nc2cc(C(F)(F)F)cc(C(F)(F)F)c2)C1 (centres undefined)	37.3 µM	10.6 µM

inhibition [1]	IC50 (Cyclic GMP-AMP synthase [3])	IC50 (Cyclic GMP-AMP synthase [4])	SMILES	CC50 at 24 h [2]	CC50 at 24 h [5]
–	> 50 µM	–	O=C(CO)N1C[C@H]2[C@H]3O[C@]4(Nc5ccccc53)c3ccc(Cl)c(Cl)c3N[C@]24C1 (racemic)	> 50 µM	–
–	8.21 µM	–	Cn1ccc(-c2cc(Cl)c(Cl)c3[nH]c4c(c23)CN(C(=O)CNC(=O)C(C)(C)NC(=O)OC(C)(C)C)CC4)n1	49.2 µM	–
–	22.2 µM	–	Cn1ccc(-c2cc(Cl)c(Cl)c3[nH]c4c(c23)CN(C(=O)[C@@H]2CCCN2)CC4)n1	49.1 µM	–
–	> 50 µM	–	O=C(CO)N1CCC2=Nc3c(ccc(Cl)c3Cl)C2(Nc2cc(F)cc(F)c2)C1 (centres undefined)	> 50 µM	–
–	11 µM	–	Cn1ccc(-c2cc(Cl)c(Cl)c3[nH]c4c(c23)CN(C(=O)CNC(=O)[C@@H](N)O)CC4)n1	27.7 µM	–
–	> 50 µM	20.1 µM	COc1ccc(OC)c2c1NC13CN(C(=O)CO)CCC21Nc1c3ccc(Cl)c1Cl (centres undefined)	> 50 µM	> 50 µM
–	14.1 µM	–	O=C(CO)N1CCC2=Nc3c(ccc(Cl)c3Cl)C2(c2c[nH]c3cc(F)ccc23)C1 (centres undefined)	32.1 µM	–
–	37.7 µM	–	CC(=O)NCC(=O)N1CCc2[nH]c3c(Cl)c(Cl)cc(-c4ccn(C)n4)c3c2C1	> 50 µM	–
–	10.2 µM	–	Cn1ccc(-c2cc(Cl)c(Cl)c3[nH]c4c(c23)CN(C(=O)CNC(=O)[C@@H](N)Cc2cc[nH]n2)CC4)n1	> 50 µM	–
–	5.49 µM	8.75 µM	CC(=O)OCC(=O)N1CCC2Nc3c(ccc(Cl)c3Cl)C2(c2c[nH]c3ccccc23)C1 (centres undefined)	32.9 µM	> 50 µM
–	9.45 µM	9.2 µM	Cc1cc(CC(=O)NCC(=O)N2CCc3[nH]c4c(Cl)c(Cl)cc(-c5ccn(C)n5)c4c3C2)no1	> 50 µM	> 50 µM
–	21 µM	–	CN(C)CC(=O)N1CCc2[nH]c3c(Cl)c(Cl)cc(-c4ccn(C)n4)c3c2C1	30.4 µM	–
–	13.5 µM	–	Cn1ccc(-c2cc(Cl)c(Cl)c3[nH]c4c(c23)CN(C(=O)CNC(=O)C2(N)CC2)CC4)n1	> 50 µM	–
–	6.4 µM	17.4 µM	Cn1ccc(-c2cc(Cl)c(Cl)c3[nH]c4c(c23)CN(C(=O)CNC(=O)C2CC(F)(F)CN2)CC4)n1 (single isomer, unassigned)	> 50 µM	36.5 µM
–	> 50 µM	–	O=C(CO)N1CC=C2Nc3c(ccc(Cl)c3Cl)C2(Cl)C1 (centres undefined)	> 50 µM	–
–	20.3 µM	–	Cn1ccc(-c2cc(Cl)c(Cl)c3[nH]c4c(c23)CN(C(=O)C2CC(OC(F)F)C2)CC4)n1 (centres undefined)	20.2 µM	–
–	15.5 µM	6.69 µM	Cc1ccc(OC(F)(F)C(=O)NCC(=O)N2CCc3[nH]c4c(Cl)c(Cl)cc(-c5ccn(C)n5)c4c3C2)cc1	> 50 µM	> 50 µM
–	11.3 µM	–	COc1ccc2c(C34CN(C(=O)CO)CCC3=Nc3c4ccc(Cl)c3Cl)c[nH]c2c1 (centres undefined)	> 50 µM	–
–	6.3 µM	9.73 µM	CC(=O)OCC(=O)N1CCC2=Nc3c(ccc(Cl)c3Cl)C2(c2c[nH]c3ccccc23)C1 (centres undefined)	50 µM	> 50 µM
–	8.59 µM	22 µM	O=C(CO)N1CCC2=Nc3c(ccc(Cl)c3Cl)C2(c2c[nH]c3cc(Cl)ccc23)C1 (centres undefined)	24.4 µM	10 µM
–	2.87 µM	11.1 µM	CC(=O)OCC(=O)N1CCC2=Nc3c(ccc(Cl)c3Cl)C2(Nc2cccc(Cl)c2C=O)C1 (centres undefined)	30.8 µM	> 50 µM
